Experimental data: US20250031679A1, “SCREENING METHOD OF PROBIOTIC AND ACTIVE SUBSTANCE FOR PROMOTING RE[…] AND USE” (Xuzhou Medical University, priority 2023, published 2025)

System: wild-type N2 C. elegans
Description: The synchronized L1-stage nematodes were diluted to 20 to 30 nematodes/10 μL. The L1-stage C. elegans was collected in the S broth and cultured in a 96-well plate (365 μL/well). 165 μL of medium, 20 μL of different concentrations of CTX treatment groups, 10 μL of L1-stage nematodes, and 5 μL of OP50 were added in sequence into the 96-well plate, and the nematodes were cultured in a biological incubator at 20° C. for 72 h, where each concentration was set with 10 groups in parallel.
The CTX was set up in three exposure groups from low to high, with concentrations being 500 μg/mL, 1 mg/mL, and 2 mg/mL. At the same time, a blank control was set up.
The nematodes treated with different concentrations of drugs were transferred to NGM, and only one nematode was placed on each medium. The one nematode was picked to a new medium every day with a worm picker. After nematodes produced by this one nematode on the old medium grew to adults, the number of nematodes on the NGM plates with different concentrations of CTX was counted until this one nematode no longer lay eggs. A sum of the number of nematodes exchanged every day was the number of eggs laid and hatched in a whole reproductive cycle of the nematode, and the reproductive capacity of the nematode was determined based on this.
L1-stage C. elegans was obtained according to the protocol in Example 1, and was treated with the CTX at a concentration of 1 mg/mL according to Example 1. Effect of treatment time on the reproductive capacity of the C. elegans was investigated.
Nematodes in L1 to L4 stages were used to construct models and the rest of the steps were conducted according to the method in Example 1.
At 20° C. a blank control group and a CTX treatment group were given pure OP50 bacterial solution and 1 mg/mL CTX/OP50 bacterial solution, respectively. Food were supplemented every 24 h, and whether the nematodes survived normally was observed. After treated in S broth for 72 h, the nematodes in the blank group and the CTX treatment group were transferred to NGM with food OP50, and one nematode was placed on each medium. The one nematode was picked to a new medium every day with a worm picker After nematodes produced by this one nematode on the old medium grew to adults, the number of nematodes on NGM plates of the blank group and the CTX treatment group was counted until this one nematode no longer lay eggs.

In the case of `O=P1(N(CCCl)CCCl)NCCCO1` (centres unmarked) [CTX, cyclophosphamide], the “reproductive capacity of C. elegans as a function of CTX concentration” value (500 μg/mL to 2 mg/mL, L1-stage, S broth, 72 h) is reported as “decreased with the increase of concentration”, the “total number of reproduced C. elegans compared with the control” value (CTX 1 mg/mL, 48 h to 96 h treatment) is reported as “significantly reduced” and the “reduction of reproductive capacity (total number of nematodes reproduced) compared with blank control group” value (CTX 1 mg/mL, L1-stage nematodes, S broth, 20° C., 72 h) is reported as 50%. The “total reproduced C. elegans” value (CTX 1 mg/mL, treated for 72 h) was “reduced to the minimum” and the fecundity of nematodes (drug treatment at different larval stages L1 to L4) was “significantly reduce the fecundity”.
